Calls of active or inactive are those of the source. The rule behind the calls is not given here.
Experiments:
Assay type in all cases: functional, cell-based
Details in all cases: Homo sapiens
K562-Tax = assay: Cytotoxicity against p-glycoprotein positive K562-Tax cells
CCRF-CEM [1] = assay: Cytotoxicity against lung resistance protein positive CEM cells
CCRF-CEM [2] = assay: Inhibition of DNA synthesis in CEM cells at 5 times IC50
CCRF-CEM [3] = assay: Increase in RNA synthesis in CEM cells at IC50
CCRF-CEM [4] = assay: Inhibition of DNA synthesis in CEM cells at IC50
CCRF-CEM [5] = assay: Induction of apoptosis in CEM cells at IC50 after 24 hrs […]
CCRF-CEM [6] = assay: Inhibition of RNA synthesis in CEM cells at IC50

Compound	Activity (K562-Tax)	Activity (CCRF-CEM [1])	Activity (CCRF-CEM [2])	Activity (CCRF-CEM [3])	Activity (CCRF-CEM [4])	Activity (CCRF-CEM [5])	Activity (CCRF-CEM [6])
CCCCCCCCOC(c1ccc([N+](=O)[O-])cc1)c1c[nH]c(=O)[nH]c1=O (stereo not given)	Active	Active	Active	Active			
CCCCCCCOC(c1ccc([N+](=O)[O-])cc1)c1c[nH]c(=O)[nH]c1=O (stereo not given)	Active	Active	Active	Active			
CCCCCCOC(c1ccc([N+](=O)[O-])cc1)c1c[nH]c(=O)[nH]c1=O (stereo not given)			Active		Active	Active	Active
CCCCCCCCCCOC(c1ccc([N+](=O)[O-])cc1)c1c[nH]c(=O)[nH]c1=O (stereo not given)	Active	Active					
CCCCCCCCCCCCOC(c1ccc([N+](=O)[O-])cc1)c1c[nH]c(=O)[nH]c1=O (stereo not given)	Active	Active					
CCCCCCCCCOC(c1ccc([N+](=O)[O-])cc1)c1c[nH]c(=O)[nH]c1=O (stereo not given)	Active	Active					
CCCCCCCCCCCOC(c1ccc([N+](=O)[O-])cc1)c1c[nH]c(=O)[nH]c1=O (stereo not given)	Active	Active					
